Laboratory results as given in patent US20240092745A1, “DRUGS AND COMPOSITIONS FOR THE TREATMENT OF OCULAR DISORDERS” (Graybug Vision, Inc., priority 2017, published 2024).
Like-named read-outs stand apart in the source and are kept apart here.

Test: Determination of drug solubility in aqueous and organic solvent;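 further: solid drug suspended at 50 mg/mL nominal in each solvent, vortexed and sonicated, then dissolved concentration in filtered supernatant quantified by HPLC against a calibration curve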
Assay type: physicochemical
Conditions: for solubility: thermodynamic from solid, Table 3A
[1] = organic solvent or mixture, DMSO, read-out: Solubility DMSO
[2] = water, drug added to 50 mg/mL, read-out: Solubility Water
[3] = organic solvent or mixture, DCM, read-out: Solubility DCM

Procedure: For each test, approximately 5-10 mg was transferred to a 10 mL glass vial. Aqueous or organic solvent was added to each vial to achieve an overall concentration of 50 mg/mL. After vortexing aggressively for 2-3 minutes and sonicating in a bath sonicator for 5 minutes, undissolved drug was spun down at 1200 rpm for 5 minutes to generate a pellet. The supernatant was collected and filtered through a 0.2 μm nylon syringe filter into HPLC vials for drug content analysis. Drug concentration was determined by comparing against a standard calibration curve.

solubility [1] [µg/mL] | solubility [2] [µg/mL] | Solubility DCM (Table 3B, DCM) [µg/mL] | Solubility DMSO (Table 3B, DMSO) [µg/mL] | Solubility Water (Table 3B, water, drug added to 50 mg/mL) [µg/mL] | solubility [3] [µg/mL] | Structure (SMILES)
> 50000 | < 1000 | – | – | – | – | CCN(CC)CCNC(=O)c1c(C)[nH]c(/C=C2\C(=O)Nc3ccc(N)cc32)c1C [5-Amino Sunitinib, 5-[5-Amino-2-oxo-1,2-dihydro-indol-(3Z)-ylidenemethyl]-2,4-dimethyl-1H-pyrrole-3-carboxylic acid (2-diethylamino-ethyl)-amide, reference compound]
> 50000 | < 1000 | <7500 | >50000 | <1000 | < 7500 | CCN[C@H]1CN(CCCOC)S(=O)(=O)c2sc(S(N)(=O)=O)cc21 [Brinzolamide, reference compound]
> 50000 | < 1000 | – | – | – | – | CC(=O)O[C@@H](CNC(C)(C)C)COc1nsnc1N1CCOCC1.O=C(O)/C=C\C(=O)O [Compound 35-4, Acetic acid (S)-1-(tert-butylamino-methyl)-2-(4-morpholin-4-yl-[1,2,5]thiadiazol-3-yloxy)-ethyl ester maleate]

The next lines start with the compound.

Structure (SMILES) | solubility [1] [µg/mL] | solubility [2] [µg/mL] | Solubility DCM (Table 3B, DCM) [µg/mL] | Solubility DMSO (Table 3B, DMSO) [µg/mL] | Solubility Water (Table 3B, water, drug added to 50 mg/mL) [µg/mL] | solubility [3] [µg/mL]
CCCCCCCCCCCCCCCCCC(=O)O[C@@H](C)C(=O)O[C@@H](C)C(=O)O[C@@H](C)C(=O)O[C@@H](C)C(=O)NS(=O)(=O)c1cc2c(s1)S(=O)(=O)C(C)CC2NCC (stereo partly drawn) [Compound 12-3, Octadecanoic acid (S)-1-((S)-1-{(S)-1-[(S)-2-(4-ethylamino-6-methyl-7,7-dioxo-4,5,6,7-tetrahydro-7λ*6*-thieno[2,3-b]thiopyran-2-sulfonylamino)-1-methyl-2-oxo-ethoxycarbonyl]-ethoxycarbonyl}-ethoxycarbonyl)-ethyl ester] | > 50000 | < 100 | – | – | – | > 50000
CCCCCCCCCCCCCCCCCC(=O)O[C@@H](C)C(=O)O[C@@H](C)C(=O)O[C@@H](C)C(=O)O[C@@H](C)C(=O)NS(=O)(=O)c1cc2c(s1)S(=O)(=O)N(CCCOC)CC2NCC (stereo partly drawn) [Compound 15-2, Octadecanoic acid (S)-1-[(S)-1-((S)-1-{(S)-2-[4-ethylamino-2-(3-methoxy-propyl)-1,1-dioxo-1,2,3,4-tetrahydro-1λ*6*-thieno[3,2-e][1,2]thiazine-6-sulfonylamino]-1-methyl-2-oxo-ethoxycarbonyl}-ethoxycarbonyl)-ethoxycarbonyl]-ethyl ester] | > 50000 | < 1000 | – | – | – | –
CC(=O)O[C@@H](C)C(=O)O[C@@H](C)C(=O)N1CCN=C1Nc1ccc2nccnc2c1Br [Compound 25-2, (S)-2-Acetoxy-propionic acid (S)-2-[2-(5-bromo-quinoxalin-6-ylamino)-4,5-dihydro-imidazol-1-yl]-1-methyl-2-oxo-ethyl ester] | > 50000 | < 1000 | – | – | – | –
CC(=O)O[C@@H](C)C(=O)O[C@@H](C)C(=O)O[C@@H](C)C(=O)N1CCN=C1Nc1ccc2nccnc2c1Br [Compound 26-2, (S)-2-((S)-2-Acetoxy-propionyloxy)-propionic acid (S)-2-[2-(5-bromo-quinoxalin-6-ylamino)-4,5-dihydro-imidazol-1-yl]-1-methyl-2-oxo-ethyl ester] | > 50000 | < 1000 | – | – | – | –
CC(=O)O[C@@H](C)C(=O)O[C@@H](C)C(=O)O[C@@H](C)C(=O)O[C@@H](C)C(=O)N1CCN=C1Nc1ccc2nccnc2c1Br [Compound 27-2, (S)-2-[(S)-2-((S)-2-Acetoxy-propionyloxy)-propionyloxy]-propionic acid (S)-2-[2-(5-bromo-quinoxalin-6-ylamino)-4,5-dihydro-imidazol-1-yl]-1-methyl-2-oxo-ethyl ester] | > 50000 | < 1000 | – | – | – | –
CCCCCCCCCCCCCCCCCC(=O)O[C@@H](C)C(=O)O[C@@H](C)C(=O)O[C@@H](C)C(=O)O[C@@H](C)C(=O)N1CCN=C1Nc1ccc2nccnc2c1Br [Compound 29-2, Octadecanoic acid (S)-1-[(S)-1-((S)-1-{(S)-2-[2-(5-bromo-quinoxalin-6-ylamino)-4,5-dihydro-imidazol-1-yl]-1-methyl-2-oxo-ethoxycarbonyl}-ethoxycarbonyl)-ethoxycarbonyl]-ethyl ester] | > 50000 | < 1000 | – | – | – | –
